Experimental data taken from ChEMBL document CHEMBL3769303, “Discovery of membrane active benzimidazole quinolones-based topoisomerase inhibitors as potential DNA-binding antimicrobial agents” (Eur J Med Chem, 2016).
Converted amounts (≈) assume the structure as drawn.

Legend:
Assay type in all cases: functional
[1] = Antibacterial activity against Bacillus proteus ATCC 13315 by micro broth dilution method
Pseudomonas aeruginosa = assay: Antibacterial activity against Pseudomonas aeruginosa ATCC 27853 by micro broth dilution method
Escherichia coli [2] = assay: Antibacterial activity against Escherichia coli DH52 by micro broth dilution method
Shigella dysenteriae = assay: Antibacterial activity against Shigella dysenteriae by micro broth dilution method
Saccharomyces cerevisiae = assay: Antifungal activity against Saccharomyces cerevisiae ATCC 9763 after 24 hrs by micro broth dilution method; settings: ATCC 9763, 24 h
Escherichia coli [3] = assay: Antibacterial activity against Escherichia coli JM109 by micro broth dilution method
Salmonella enterica = assay: Antibacterial activity against Salmonella enterica ATCC 14028 by micro broth dilution method
Bacillus spizizenii = assay: Antibacterial activity against Bacillus subtilis ATCC 6633 by micro broth dilution method
Candida albicans = assay: Antifungal activity against Candida albicans ATCC 10231 after 24 hrs by micro broth dilution method; settings: ATCC 10231, 24 h
Staphylococcus aureus [4] = assay: Antibacterial activity against methicillin-resistant Staphylococcus aureus N315 by micro broth dilution method
Aspergillus flavus = assay: Antifungal activity against Aspergillus flavus ATCC 204304 after 24 hrs by micro broth dilution method; settings: ATCC 204304, 24 h
Micrococcus luteus = assay: Antibacterial activity against Micrococcus luteus ATCC 4698 by micro broth dilution method; settings: NCTC 2665
Cyberlindnera jadinii = assay: Antifungal activity against Candida utilis ATCC 9950 after 24 hrs by micro broth dilution method; settings: Williopsis jadinii, ATCC 9950, 24 h
Staphylococcus aureus [5] = assay: Antibacterial activity against Staphylococcus aureus ATCC 25923 by micro broth dilution method
[6] = Antifungal activity against Candida mycoderma ATCC 9888 after 24 hrs by micro broth dilution method; settings: Candida vini

SMILES | MIC [1] | MIC (Pseudomonas aeruginosa) | MIC (Escherichia coli [2]) | MIC (Shigella dysenteriae) | MIC80 (Saccharomyces cerevisiae) | MIC (Escherichia coli [3]) | MIC (Salmonella enterica) | MIC (Bacillus spizizenii) | MIC80 (Candida albicans) | MIC (Staphylococcus aureus [4]) | MIC80 (Aspergillus flavus) | MIC (Micrococcus luteus) | MIC80 (Cyberlindnera jadinii) | MIC (Staphylococcus aureus [5]) | MIC80 [6]
CCn1cc(C(=O)O)c(=O)c2cc(F)c(N3CCN(Cc4nc5ccccc5n4Cc4ccc(F)cc4)CC3)cc21 | 32 µg/mL (≈ 57.4 µM) | 8 µg/mL (≈ 14.3 µM) | 32 µg/mL (≈ 57.4 µM) | 16 µg/mL (≈ 28.7 µM) | 8 µg/mL (≈ 14.3 µM) | 32 µg/mL (≈ 57.4 µM) | 8 µg/mL (≈ 14.3 µM) | 8 µg/mL (≈ 14.3 µM) | 8 µg/mL (≈ 14.3 µM) | 16 µg/mL (≈ 28.7 µM) | 16 µg/mL (≈ 28.7 µM) | 8 µg/mL (≈ 14.3 µM) | 8 µg/mL (≈ 14.3 µM) | 8 µg/mL (≈ 14.3 µM) | 32 µg/mL (≈ 57.4 µM)
O=C(O)c1cn(C2CC2)c2cc(N3CCN(Cc4nc5ccccc5[nH]4)CC3)c(F)cc2c1=O | 0.125 µg/mL (≈ 0.271 µM) | 0.5 µg/mL (≈ 1.08 µM) | 0.125 µg/mL (≈ 0.271 µM) | 1 µg/mL (≈ 2.17 µM) | 0.0625 µg/mL (≈ 0.135 µM) | 0.5 µg/mL (≈ 1.08 µM) | 0.125 µg/mL (≈ 0.271 µM) | 0.125 µg/mL (≈ 0.271 µM) | 0.0625 µg/mL (≈ 0.135 µM) | 0.125 µg/mL (≈ 0.271 µM) | 0.5 µg/mL (≈ 1.08 µM) | 0.125 µg/mL (≈ 0.271 µM) | 0.125 µg/mL (≈ 0.271 µM) | 0.25 µg/mL (≈ 0.542 µM) | 0.125 µg/mL (≈ 0.271 µM)
COC(=O)c1cn(C2CC2)c2cc(N3CCN(/C=N\c4nc5ccccc5[nH]4)CC3)c(F)cc2c1=O | 4 µg/mL (≈ 8.19 µM) | 2 µg/mL (≈ 4.09 µM) | 8 µg/mL (≈ 16.4 µM) | 8 µg/mL (≈ 16.4 µM) | 2 µg/mL (≈ 4.09 µM) | 8 µg/mL (≈ 16.4 µM) | 4 µg/mL (≈ 8.19 µM) | 2 µg/mL (≈ 4.09 µM) | 32 µg/mL (≈ 65.5 µM) | 64 µg/mL (≈ 131 µM) | 4 µg/mL (≈ 8.19 µM) | 4 µg/mL (≈ 8.19 µM) | 8 µg/mL (≈ 16.4 µM) | 32 µg/mL (≈ 65.5 µM) | 16 µg/mL (≈ 32.8 µM)
O=C(O)c1cn(C2CC2)c2cc(N3CCN(Cc4nc5ccc(Cl)cc5[nH]4)CC3)c(F)cc2c1=O | 0.5 µg/mL (≈ 1.01 µM) | 0.5 µg/mL (≈ 1.01 µM) | 0.5 µg/mL (≈ 1.01 µM) | 0.5 µg/mL (≈ 1.01 µM) | 0.25 µg/mL (≈ 0.504 µM) | 0.5 µg/mL (≈ 1.01 µM) | 0.5 µg/mL (≈ 1.01 µM) | 0.5 µg/mL (≈ 1.01 µM) | 0.5 µg/mL (≈ 1.01 µM) | 0.5 µg/mL (≈ 1.01 µM) | 0.5 µg/mL (≈ 1.01 µM) | 0.25 µg/mL (≈ 0.504 µM) | 0.5 µg/mL (≈ 1.01 µM) | 0.5 µg/mL (≈ 1.01 µM) | 0.5 µg/mL (≈ 1.01 µM)
CCCCCn1c(CN2CCN(c3cc4c(cc3F)c(=O)c(C(=O)O)cn4CC)CC2)nc2ccccc21 | 8 µg/mL (≈ 15.4 µM) | 64 µg/mL (≈ 123 µM) | 8 µg/mL (≈ 15.4 µM) | 128 µg/mL (≈ 246 µM) | 64 µg/mL (≈ 123 µM) | 128 µg/mL (≈ 246 µM) | 256 µg/mL (≈ 493 µM) | 32 µg/mL (≈ 61.6 µM) | 4 µg/mL (≈ 7.7 µM) | 64 µg/mL (≈ 123 µM) | 64 µg/mL (≈ 123 µM) | 16 µg/mL (≈ 30.8 µM) | 32 µg/mL (≈ 61.6 µM) | 512 µg/mL (≈ 985 µM) | 8 µg/mL (≈ 15.4 µM)
CCn1cc(C(=O)O)c(=O)c2cc(F)c(N3CCN(Cc4nc5ccccc5n4Cc4ccc([N+](=O)[O-])cc4)CC3)cc21 | 16 µg/mL (≈ 27.4 µM) | 4 µg/mL (≈ 6.84 µM) | 16 µg/mL (≈ 27.4 µM) | 4 µg/mL (≈ 6.84 µM) | 4 µg/mL (≈ 6.84 µM) | 8 µg/mL (≈ 13.7 µM) | 4 µg/mL (≈ 6.84 µM) | 2 µg/mL (≈ 3.42 µM) | 4 µg/mL (≈ 6.84 µM) | 8 µg/mL (≈ 13.7 µM) | 8 µg/mL (≈ 13.7 µM) | 4 µg/mL (≈ 6.84 µM) | 4 µg/mL (≈ 6.84 µM) | 4 µg/mL (≈ 6.84 µM) | 16 µg/mL (≈ 27.4 µM)
CCCCCCCCn1c(CN2CCN(c3cc4c(cc3F)c(=O)c(C(=O)O)cn4C3CC3)CC2)nc2ccccc21 | 0.5 µg/mL (≈ 0.872 µM) | 1 µg/mL (≈ 1.74 µM) | 0.5 µg/mL (≈ 0.872 µM) | 4 µg/mL (≈ 6.97 µM) | 16 µg/mL (≈ 27.9 µM) | 2 µg/mL (≈ 3.49 µM) | 4 µg/mL (≈ 6.97 µM) | 32 µg/mL (≈ 55.8 µM) | 1 µg/mL (≈ 1.74 µM) | 1 µg/mL (≈ 1.74 µM) | 1 µg/mL (≈ 1.74 µM) | 1 µg/mL (≈ 1.74 µM) | 2 µg/mL (≈ 3.49 µM) | 16 µg/mL (≈ 27.9 µM) | 1 µg/mL (≈ 1.74 µM)
CCCn1c(CN2CCN(c3cc4c(cc3F)c(=O)c(C(=O)O)cn4CC)CC2)nc2ccccc21 | 128 µg/mL (≈ 260 µM) | 32 µg/mL (≈ 65.1 µM) | 32 µg/mL (≈ 65.1 µM) | 32 µg/mL (≈ 65.1 µM) | 32 µg/mL (≈ 65.1 µM) | 128 µg/mL (≈ 260 µM) | 16 µg/mL (≈ 32.5 µM) | 2 µg/mL (≈ 4.07 µM) | 32 µg/mL (≈ 65.1 µM) | 16 µg/mL (≈ 32.5 µM) | 32 µg/mL (≈ 65.1 µM) | 8 µg/mL (≈ 16.3 µM) | 32 µg/mL (≈ 65.1 µM) | 256 µg/mL (≈ 521 µM) | 2 µg/mL (≈ 4.07 µM)
